Assay results reported in patent US20260297060A1, “COMPOUNDS FOR THE DEGRADATION OF MUTANT BRAF” (C4 THERAPEUTICS, INC., priority 2023, published 2026).
Like-named read-outs stand apart in the source and are kept apart here.

Experiments:
BRAF V600E = target: T1, BRAF V600E (Homo sapiens, UniProt P15056+Q96SW2, V600E); assay: BRAF V600E HiBiT Degradation Assay; assay type: cell-based
T1 construct: knock-in of the HiBiT tag to the endogenous BRAF V600E locus; host or cells: A375.10 (A375 clonal line, CRISPR HiBiT knock-in at the endogenous BRAF V600E locus)
Outline: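 Endogenous HiBiT knock-in on BRAF V600E in A375 cells (clone A375.10); 11-point half-log series, top 10 μM, 2, 6 or 24 h at 37° C. Lytic HiBiT luminescence, background-subtracted, normalized to DMSO; 4-parameter fit gives DC50, Emax (residual protein) and IP (inflection point).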

A375-NRAS^Q61K cells = assay: CTGlo Cell Viability Assay, A375-NRAS^Q61K (A375.11) cells, 96 hours; assay type: cell-based, human; details: Homo sapiens, 96 h, A375.11 (A375-NRAS^Q61K) cells; for Emax: lowest % viability achieved
Outline: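 Viability as CellTiter-Glo ATP luminescence after 96 h compound exposure at 37 °C; A375.11 (BRAF V600E/NRAS Q61K) cells at 250/well, top final concentration 10 μM in half-log steps. Signal was background-corrected and set relative to DMSO controls. A 4-parameter logistic fit gave GI50 (50% crossing) and Emax.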

[1] = A375.10 cells, BRAF V600E, 2 hours, inflection point, read-out: HiBiT-Degradation A375.10 BRAF 2 hours IP
[2] = A375.10 cells, BRAF V600E, 2 hours, read-out: HiBiT-Degradation A375.10 BRAF 2 hours DC50
[3] = A375.10 cells, BRAF V600E, 2 hours, residual protein remaining, read-out: HiBiT-Degradation A375.10 BRAF 2 hours Emax
[4] = read-out: HiBiT-Degradation A375.10 BRAF 2 hours DC50, A375.10 cells, BRAF V600E, 2 hours
[5] = read-out: HiBiT-Degradation A375.10 BRAF 2 hours IP, A375.10 cells, BRAF V600E, 2 hours, inflection point
[6] = read-out: HiBiT-Degradation A375.10 BRAF 2 hours Emax, A375.10 cells, BRAF V600E, 2 hours, residual protein remaining

T1 sequence (P15056 whole entry V600E): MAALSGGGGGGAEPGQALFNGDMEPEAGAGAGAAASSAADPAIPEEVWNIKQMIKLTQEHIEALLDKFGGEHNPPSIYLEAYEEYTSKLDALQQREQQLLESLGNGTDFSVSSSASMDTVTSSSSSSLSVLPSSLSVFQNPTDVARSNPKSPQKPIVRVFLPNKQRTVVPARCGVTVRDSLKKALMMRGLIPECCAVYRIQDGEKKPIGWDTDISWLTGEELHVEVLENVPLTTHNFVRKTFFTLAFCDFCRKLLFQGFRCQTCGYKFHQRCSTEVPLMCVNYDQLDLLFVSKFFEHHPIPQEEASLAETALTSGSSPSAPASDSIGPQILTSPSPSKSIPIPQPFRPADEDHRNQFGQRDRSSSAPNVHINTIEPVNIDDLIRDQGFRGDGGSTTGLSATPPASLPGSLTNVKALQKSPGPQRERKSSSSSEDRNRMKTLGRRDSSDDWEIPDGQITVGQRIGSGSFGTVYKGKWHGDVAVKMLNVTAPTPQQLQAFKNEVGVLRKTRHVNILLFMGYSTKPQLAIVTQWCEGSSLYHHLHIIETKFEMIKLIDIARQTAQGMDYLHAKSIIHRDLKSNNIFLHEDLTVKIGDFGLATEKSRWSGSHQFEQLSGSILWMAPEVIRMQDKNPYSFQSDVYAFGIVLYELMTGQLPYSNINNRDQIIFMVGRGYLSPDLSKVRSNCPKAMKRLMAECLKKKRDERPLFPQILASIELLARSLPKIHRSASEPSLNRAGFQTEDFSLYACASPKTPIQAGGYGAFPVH
T1 sequence (Q96SW2 whole entry): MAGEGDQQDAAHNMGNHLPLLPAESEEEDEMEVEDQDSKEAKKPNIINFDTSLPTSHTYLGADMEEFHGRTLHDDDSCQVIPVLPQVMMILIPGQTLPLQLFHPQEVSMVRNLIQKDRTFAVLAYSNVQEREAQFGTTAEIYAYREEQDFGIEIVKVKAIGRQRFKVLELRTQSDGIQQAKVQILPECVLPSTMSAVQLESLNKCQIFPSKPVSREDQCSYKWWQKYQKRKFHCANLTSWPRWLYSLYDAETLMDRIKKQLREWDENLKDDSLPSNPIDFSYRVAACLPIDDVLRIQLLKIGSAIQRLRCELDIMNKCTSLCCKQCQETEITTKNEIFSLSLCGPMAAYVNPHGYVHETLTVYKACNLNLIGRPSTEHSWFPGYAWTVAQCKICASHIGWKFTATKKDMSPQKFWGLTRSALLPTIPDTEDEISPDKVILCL
T1 sequence (Q16531 whole entry partner): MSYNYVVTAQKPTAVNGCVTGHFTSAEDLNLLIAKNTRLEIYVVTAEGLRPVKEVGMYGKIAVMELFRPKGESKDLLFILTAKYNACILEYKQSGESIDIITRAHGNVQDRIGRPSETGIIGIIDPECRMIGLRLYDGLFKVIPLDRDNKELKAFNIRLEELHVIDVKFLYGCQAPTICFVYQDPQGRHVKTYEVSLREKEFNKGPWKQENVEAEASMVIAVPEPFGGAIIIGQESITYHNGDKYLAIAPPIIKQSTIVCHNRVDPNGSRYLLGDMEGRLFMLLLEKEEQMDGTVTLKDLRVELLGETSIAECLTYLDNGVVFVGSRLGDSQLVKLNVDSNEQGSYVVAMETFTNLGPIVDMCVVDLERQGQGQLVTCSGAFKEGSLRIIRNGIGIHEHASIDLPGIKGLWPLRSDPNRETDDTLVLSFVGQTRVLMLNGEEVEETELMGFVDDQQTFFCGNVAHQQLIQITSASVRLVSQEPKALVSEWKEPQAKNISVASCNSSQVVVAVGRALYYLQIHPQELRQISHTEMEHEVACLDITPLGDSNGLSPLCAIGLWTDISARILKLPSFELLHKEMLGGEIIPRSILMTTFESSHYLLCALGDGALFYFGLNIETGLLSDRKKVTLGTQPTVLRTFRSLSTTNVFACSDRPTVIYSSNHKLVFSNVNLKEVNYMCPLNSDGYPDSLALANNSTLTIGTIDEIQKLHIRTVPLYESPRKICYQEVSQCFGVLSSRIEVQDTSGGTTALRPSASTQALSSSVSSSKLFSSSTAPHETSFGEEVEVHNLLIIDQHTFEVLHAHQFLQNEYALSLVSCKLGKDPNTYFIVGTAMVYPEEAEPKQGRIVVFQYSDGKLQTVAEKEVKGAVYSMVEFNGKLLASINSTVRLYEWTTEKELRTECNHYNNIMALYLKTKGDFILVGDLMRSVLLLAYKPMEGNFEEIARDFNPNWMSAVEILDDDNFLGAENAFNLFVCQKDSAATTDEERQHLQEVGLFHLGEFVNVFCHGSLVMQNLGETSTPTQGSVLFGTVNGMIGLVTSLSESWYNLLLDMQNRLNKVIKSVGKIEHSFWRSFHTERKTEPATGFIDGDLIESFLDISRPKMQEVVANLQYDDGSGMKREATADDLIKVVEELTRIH

Structure (SMILES)	DC50 (BRAF V600E; [1])	DC50 (BRAF V600E; [2])	Emax (BRAF V600E; [3])	GI50 (A375-NRAS^Q61K cells)	DC50 (BRAF V600E; [4])	DC50 (BRAF V600E; [5])	Emax (BRAF V600E; [6])	DC50 (BRAF V600E; A375.10 cells, HiBiT, BRAF V600E, 24 hours, read-out: HiBiT-Degradation A375.10 BRAF 24 hours DC50)	Emax (BRAF V600E; A375.10 cells, HiBiT, BRAF V600E, 24 hours, read-out: HiBiT-Degradation A375.10 BRAF 24 hours Emax)	DC50 (BRAF V600E; A375.10 cells, HiBiT, BRAF V600E, 24 hours, read-out: HiBiT-Degradation A375.10 BRAF 24 hours IP)	Emax (A375-NRAS^Q61K cells)
Cn1nc(N2CCC(=O)NC2=O)c2cc(F)c(N3CC4(CC(N5CCC6(CC5)CC(n5cnc7ccc(Oc8c(F)ccc(NS(=O)(=O)N9CCOCC9)c8C#N)cc7c5=O)C6)C4)C3)cc21 [Compound 262, N-[2-cyano-3-[3-[7-[2-[3-(2,4-dioxohexahydropyrimidin-1-yl)-5-fluoro-1-methyl-indazol-6-yl]-2-azaspiro[3.3]heptan-6-yl]-7-azaspiro[3.5]nonan-2-yl]-4-oxo-quinazolin-6-yl]oxy-4-fluoro-phenyl]morpholine-4-sulfonamide]	< 1 µM	< 1 µM	< 50%	< 1 µM							50 to 90%
Cn1nc(N2CCC(=O)NC2=O)c2cc(F)c(N3CC4(CC(N5CCC6(CC5)CC(n5cnc7ccc(Oc8c(F)ccc(NS(=O)(=O)C9CCOCC9)c8C#N)cc7c5=O)C6)C4)C3)cc21 [Compound 263, N-[2-cyano-3-[3-[7-[2-[3-(2,4-dioxohexahydropyrimidin-1-yl)-5-fluoro-1-methyl-indazol-6-yl]-2-azaspiro[3.3]heptan-6-yl]-7-azaspiro[3.5]nonan-2-yl]-4-oxo-quinazolin-6-yl]oxy-4-fluoro-phenyl]tetrahydropyran-4-sulfonamide]			< 50%	> 10 µM	< 1 µM	< 1 µM					50 to 90%
CCN(C)S(=O)(=O)Nc1ccc(F)c(Oc2ccc3ncn(CC4CCN(C5CCN(c6cc7c(cc6F)c(N6CCC(=O)NC6=O)nn7C)CC5)CC4)c(=O)c3c2)c1C#N [Compound 264, 6-[2-cyano-3-[[ethyl(methyl)sulfamoyl]amino]-6-fluoro-phenoxy]-3-[[1-[1-[3-(2,4-dioxohexahydropyrimidin-1-yl)-5-fluoro-1-methyl-indazol-6-yl]-4-piperidyl]-4-piperidyl]methyl]-4-oxo-quinazoline]	< 1 µM	< 1 µM	< 50%	1 to 10 µM							50 to 90%
Cn1nc(N2CCC(=O)NC2=O)c2cc(F)c(N3CC4(CC(N5CCC6(CC5)CC(c5cnc7ccc(Oc8c(F)ccc(NS(=O)(=O)N9CC[C@@H](F)C9)c8C#N)cc7n5)C6)C4)C3)cc21 [Compound 265, (3R)-N-[2-cyano-3-[3-[7-[2-[3-(2,4-dioxohexahydropyrimidin-1-yl)-5-fluoro-1-methyl-indazol-6-yl]-2-azaspiro [3.3]heptan-6-yl]-7-azaspiro [3.5]nonan-2-yl]quinoxalin-6-yl]oxy-4-fluoro-phenyl]-3-fluoro-pyrrolidine-1-sulfonamide]			< 50%	< 1 µM	< 1 µM	< 1 µM					< 50%
CCN(C)S(=O)(=O)Nc1ccc(F)c(Oc2ccc3ncn(C4CC5(CCN(C6CC7(CCN(c8cc9c(cc8F)c(N8CCC(=O)NC8=O)nn9C)CC7)C6)C5)C4)c(=O)c3c2)c1C#N (centres unmarked) [Compound 266, 6-[2-cyano-3-[[ethyl(methyl)sulfamoyl]amino]-6-fluoro-phenoxy]-3-[6-[7-[3-(2,4-dioxohexahydropyrimidin-1-yl)-5-fluoro-1-methyl-indazol-6-yl]-7-azaspiro[3.5]nonan-2-yl]-6-azaspiro[3.4]octan-2-yl]-4-oxo-quinazoline]	< 1 µM	< 1 µM	50 to 90%	> 10 µM							50 to 90%

Continued, in another order:

DC50 (BRAF V600E; [1])	DC50 (BRAF V600E; [2])	Emax (BRAF V600E; [3])	GI50 (A375-NRAS^Q61K cells)	DC50 (BRAF V600E; [4])	DC50 (BRAF V600E; [5])	Emax (BRAF V600E; [6])	DC50 (BRAF V600E; A375.10 cells, HiBiT, BRAF V600E, 24 hours, read-out: HiBiT-Degradation A375.10 BRAF 24 hours DC50)	Emax (BRAF V600E; A375.10 cells, HiBiT, BRAF V600E, 24 hours, read-out: HiBiT-Degradation A375.10 BRAF 24 hours Emax)	DC50 (BRAF V600E; A375.10 cells, HiBiT, BRAF V600E, 24 hours, read-out: HiBiT-Degradation A375.10 BRAF 24 hours IP)	Structure (SMILES)	Emax (A375-NRAS^Q61K cells)
< 1 µM	< 1 µM		< 1 µM			< 50%				Cn1nc(N2CCC(=O)NC2=O)c2cc(F)c(C3CCC(N4CCC5(CC4)CC(c4cnc6ccc(Oc7c(F)ccc(NS(=O)(=O)N8CC[C@@H](F)C8)c7C#N)cc6n4)C5)CC3)cc21 (stereo partly drawn) [Compound 267, (3R)-N-[2-cyano-3-[3-[7-[4-[3-(2,4-dioxohexahydropyrimidin-1-yl)-5-fluoro-1-methyl-indazol-6-yl]cyclohexyl]-7-azaspiro[3.5]nonan-2-yl]quinoxalin-6-yl]oxy-4-fluoro-phenyl]-3-fluoro-pyrrolidine-1-sulfonamide]	< 50%
			> 10 µM	< 1 µM	< 1 µM	< 50%				CO[C@H]1CCN(S(=O)(=O)Nc2ccc(F)c(Oc3ccc4ncn(C5CC6(CCN(C7CC8(C7)CN(c7cc9c(cc7F)c(N7CCC(=O)NC7=O)nn9C)C8)CC6)C5)c(=O)c4c3)c2C#N)C1 (stereo partly drawn) [Compound 272, (3S)-N-[2-cyano-3-[3-[7-[2-[3-(2,4-dioxohexahydropyrimidin-1-yl)-5-fluoro-1-methyl-indazol-6-yl]-2-azaspiro[3.3]heptan-6-yl]-7-azaspiro[3.5]nonan-2-yl]-4-oxo-quinazolin-6-yl]oxy-4-fluoro-phenyl]-3-methoxy-pyrrolidine-1-sulfonamide]	50 to 90%
< 1 µM	< 1 µM	< 50%	< 1 µM							CCN(C)S(=O)(=O)Nc1ccc(F)c(Oc2ccc3ncn(C4CCN(C5CC6(CCN(c7cc8c(cc7F)c(N7CCC(=O)NC7=O)nn8C)CC6)C5)CC4)c(=O)c3c2)c1C#N [Compound 274, 6-[2-cyano-3-[[ethyl(methyl)sulfamoyl]amino]-6-fluoro-phenoxy]-3-[1-[7-[3-(2,4-dioxohexahydropyrimidin-1-yl)-5-fluoro-1-methyl-indazol-6-yl]-7-azaspiro[3.5]nonan-2-yl]-4-piperidyl]-4-oxo-quinazoline]	< 50%
		< 50%	< 1 µM	< 1 µM	< 1 µM					CO[C@@H]1CCN(S(=O)(=O)Nc2ccc(F)c(Oc3ccc4ncc(C5CC6(CCN(C7CC8(C7)CN(c7cc9c(cc7F)c(N7CCC(=O)NC7=O)nn9C)C8)CC6)C5)nc4c3)c2C#N)C1 (stereo partly drawn) [Compound 278, (3R)-N-[2-cyano-3-[3-[7-[2-[3-(2,4-dioxohexahydropyrimidin-1-yl)-5-fluoro-1-methyl-indazol-6-yl]-2-azaspiro[3.3]heptan-6-yl]-7-azaspiro[3.5]nonan-2-yl]quinoxalin-6-yl]oxy-4-fluoro-phenyl]-3-methoxy-pyrrolidine-1-sulfonamide]	< 50%
		50 to 90%	> 10 µM	< 1 µM	< 1 µM					CO[C@H]1CCN(S(=O)(=O)Nc2ccc(F)c(Oc3ccc4ncc(C5CC6(CCN(C7CC8(C7)CN(c7cc9c(cc7F)c(N7CCC(=O)NC7=O)nn9C)C8)CC6)C5)nc4c3)c2C#N)C1 (stereo partly drawn) [Compound 279, (3S)-N-[2-cyano-3-[3-[7-[2-[3-(2,4-dioxohexahydropyrimidin-1-yl)-5-fluoro-1-methyl-indazol-6-yl]-2-azaspiro[3.3]heptan-6-yl]-7-azaspiro[3.5]nonan-2-yl]quinoxalin-6-yl]oxy-4-fluoro-phenyl]-3-methoxy-pyrrolidine-1-sulfonamide]	50 to 90%
		< 50%	< 1 µM	< 1 µM	< 1 µM					Cn1nc(N2CCC(=O)NC2=O)c2cc(F)c(N3CC4(CC(N5CCC6(CC5)CC(c5cnc7ccc(Oc8c(F)ccc(NS(=O)(=O)C9CCCC9)c8C#N)cc7n5)C6)C4)C3)cc21 [Compound 283, N-[2-cyano-3-[3-[7-[2-[3-(2,4-dioxohexahydropyrimidin-1-yl)-5-fluoro-1-methyl-indazol-6-yl]-2-azaspiro[3.3]heptan-6-yl]-7-azaspiro[3.5]nonan-2-yl]quinoxalin-6-yl]oxy-4-fluoro-phenyl]cyclopentanesulfonamide]	50 to 90%
< 1 µM	< 1 µM	50 to 90%	< 1 µM				< 1 µM	< 50%	< 1 µM	CCN(C)S(=O)(=O)Nc1ccc(F)c(Oc2ccc3ncn(C4CC5(C4)CN(CC4CCN(c6cc7c(cc6F)c(N6CCC(=O)NC6=O)nn7C)CC4)C5)c(=O)c3c2)c1C#N [Compound 296, 6-[2-cyano-3-[[ethyl(methyl)sulfamoyl]amino]-6-fluoro-phenoxy]-3-[2-[[1-[3-(2,4-dioxohexahydropyrimidin-1-yl)-5-fluoro-1-methyl-indazol-6-yl]-4-piperidyl]methyl]-2-azaspiro[3.3]heptan-6-yl]-4-oxo-quinazoline]	50 to 90%
< 1 µM	1 to 10 µM	50 to 90%	> 10 µM							CCN(C)S(=O)(=O)Nc1ccc(F)c(Oc2ccc3ncc(C4CC5(C4)CN(C4CC6(C4)CN(c4cc7c(cc4F)c(N4CCC(=O)NC4=O)nn7C)C6)C5)nc3c2)c1C#N (centres unmarked) [Compound 303, 7-[2-cyano-3-[[ethyl(methyl)sulfamoyl]amino]-6-fluoro-phenoxy]-2-[2-[2-[3-(2,4-dioxohexahydropyrimidin-1-yl)-5-fluoro-1-methyl-indazol-6-yl]-2-azaspiro[3.3]heptan-6-yl]-2-azaspiro[3.3]heptan-6-yl]quinoxaline]	50 to 90%
